The text below walks through data of US8383638B2, “Aminobenzoquinazolinone M1 receptor positive allosteric modulators” (Merck Sharp & Dohme, priority 2009, dated 2013).

pEC50: −log10 of the molar value.

For this experiment, the target named is T1, acetylcholine muscarinic M1 receptor (Homo sapiens, UniProt P11229).
T1 construct: expressed in transfected cells; host or cells: CHOnfat cells (CHO; also called CHOK1/hM1)
T1 sequence (P11229 1-460): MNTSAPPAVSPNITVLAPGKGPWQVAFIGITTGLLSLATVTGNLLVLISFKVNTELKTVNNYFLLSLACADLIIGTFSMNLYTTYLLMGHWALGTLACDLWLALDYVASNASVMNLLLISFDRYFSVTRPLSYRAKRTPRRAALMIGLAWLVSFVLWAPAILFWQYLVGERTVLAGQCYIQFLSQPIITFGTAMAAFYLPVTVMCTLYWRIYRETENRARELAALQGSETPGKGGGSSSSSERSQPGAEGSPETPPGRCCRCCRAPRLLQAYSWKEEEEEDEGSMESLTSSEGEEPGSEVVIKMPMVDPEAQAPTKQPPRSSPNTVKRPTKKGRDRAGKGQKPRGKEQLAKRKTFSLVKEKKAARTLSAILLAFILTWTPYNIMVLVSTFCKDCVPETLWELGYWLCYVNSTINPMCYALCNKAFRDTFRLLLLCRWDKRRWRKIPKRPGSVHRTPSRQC
Kind of experiment: muscarinic FLIPR assay: potentiation of acetylcholine (EC20)-stimulated intracellular Ca2+ in CHOnfat/hM1 cells. It counts as cell-based. The note with it: 4 min preincubation, then EC20 acetylcholine (3 nM final), positive allosteric modulator activity, read-out: IP Value (inflection point). The method, then: The assay studies the effect of one or several concentrations of test compounds on basal or acetylcholine-stimulated Ca^2+ levels using FLIPR.
Compounds are prepared and subjected to a preincubation period of 4 min. Thereafter, a single EC20 concentration of acetylcholine is added to each well (3 nM final). The intracellular Ca^2+ level of each sample is measured and compared to an acetylcholine control to determine any modulatory activity.
Cells: CHOnfat/hM1, hM2, hM3 or hM4 cells are plated 24 hr before the assay at a density of 18,000 cells/well (100 μL) in a 384 well plate. CHOnfat/hM1 and CHOnfat/hM3 Growth Medium: 90% DMEM (Hi Glucose); 10% HI FBS; 2 mM L-glutamine; 0.1 mM NEAA; Pen-Strep; and 1 mg/ml Geneticin, are added. For M2Gqi5CHOnfat and M4Gqi5CHOnfat cells, an additional 600 ug/ml hygromycin is added.
Equipment: 384 well plate, 120 μL addition plate; 96-well Whatman 2 ml Uniplate Incubator, 37° C., 5% CO2; Skatron EMBLA-384 Plate Washer; Multimek Pipetting System; Genesis Freedom 200 System; Mosquito System; Temo Nanoliter Pipetting System; and FLIPR^384 Fluorometric Imaging Plate Reader System are used.
Buffers. Assay Buffer: Hanks Balanced Salt Solution, with 20 mM Hepes, 2.5 mM Probenecid (Sigma P-8761) first dissolved in 1 N NaOH, 1% Bovine Serum Albumin (Sigma A-9647). Dye Loading Buffer: Assay Buffer plus 1% Fetal Bovine Serum and Fluo-4AM/Pluronic Acid Mixture. 2 mM Fluo-4AM ester stock in DMSO (Molecular Probes F-14202) Concentration of 2 μM in buffer for a final concentration of 1 μM in Assay. 20% Pluronic Acid Solution stock, with concentration of 0.04% in Buffer, 0.02% in Assay.
65 μL of 2 mM Fluo-4AM are mixed with 130 μL of 20% Pluronic Acid. The resulting solution and 650 μL FBS is added to the assay buffer for a total volume of 65 mL. Positive Controls: 4-Br-A23187: 10 mM in DMSO; final concentration 10 μM. Acetylcholine: 10 mM in water, working stock at both 20 μM and 30 μM in assay buffer, final concentration of 10 μM. This is used to check the maximum stimulation of the CHOK1/hM1 cells. 20 μM (2×) acetylcholine is added in the preincubation part of the assay, and the 30 μM (3×) stock is added in the second part. (EC20)Acetylcholine: 10 mM in water, working stock of 9 nM (3×), and final concentration in assay is 3 nM. This is used after the preincubation with test compounds. Addition of the EC20 Acetylcholine to each well with a test compound will ascertain any modulator activity. 24 wells contain 3 nM Acetylcholine alone as a control.
Screening Plate Compounds are titrated in 96-well plates (columns 2-11), 100% DMSO, started at a concentration of 15 mM (150× stock concentration), and 3-fold serial dilutions using Genesis Freedom200 System. Four 96-well plates are combined into a 384-well plate using Mosquito Nanoliter Pipetting System by transferring 1 μl of serial diluted compounds to each well, and 1 mM acetylcholine (100× stock concentration) were added as a control. Using Temo, 49 μl assay buffer is added to each well of the 384-well plate right before assay.
In a 96-well Whatman 2 ml Uniplate, 9 nM Acetylcholine (3×) is pipetted into wells corresponding to the screening compounds, and into control wells. The 30 μM acetylcholine control (3×) is added into control wells, and the 3× agonist plate is transferred into a 384 well plate.
Cells are washed three times with 100 μL of buffer, leaving 30 μL of buffer in each well. Using Multimek, 30 μL of Dye Loading Buffer is added into each well and incubated at 37° C., 5% CO2 for up to one hr.
After 60 min, the cells are washed three times with 100 μL of buffer, leaving 30 μL […] of buffer in each well. The cell plate, screening plate, and agonist addition plates are placed on the platform in the FLIPR and the door closed. A signal test to check background fluorescence and basal fluorescence signal is performed. Laser intensity is adjusted if necessary. […]

With `Cc1ccnc(C2(C#N)CCN(Cc3cc4c(=O)n([C@H]5CCCC[C@@H]5O)cnc4c4ccncc34)CC2)c1` [Example 5, 1-({3-[(1S,2S)-2-Hydroxycyclohexyl]-4-oxo-3,4-dihydropyrido[3,4-h]quinazolin-6-yl}methyl)-4-(4-methylpyridin-2-yl)piperidine-4-carbonitrile], the pEC50 was 7.68.
On to `N#CC1(c2ccccn2)CCN(Cc2cc3c(=O)n([C@H]4CCCC[C@@H]4O)cnc3c3ccccc23)CC1` [Example 2, 1-({3-[(1S,2S)-2-Hydroxycyclohexyl]-4-oxo-3,4-dihydrobenzo[h]quinazolin-6-yl}methyl)-4-pyridin-2-ylpiperidine-4-carbonitrile], for which the pEC50 was 7.74.
For the molecule `O=c1c2cc(CN3CCN(c4ccsc4)CC3)c3ccccc3c2ncn1[C@H]1CCCC[C@@H]1O` [Example 6, 3-[(1S,2S)-2-Hydroxycyclohexyl]-6-{[4-(3-thienyl)piperazin-1-yl]methyl}benzo[h]quinazolin-4(3H)-one], the pEC50 was 6.41.
`CC1(C#N)CCN(Cc2cc3c(=O)n([C@H]4CCCC[C@@H]4O)cnc3c3ccccc23)CC1` [Example 8, 1-({3-[(1S,2S)-2-Hydroxycyclohexyl]-4-oxo-3,4-dihydrobenzo[h]quinazolin-6-yl}methyl)-4-methylpiperidine-4-carbonitrile]: the pEC50 was 6.47.
With `O=c1c2cc(CN3CCC(F)(c4ccccn4)CC3)c3ccccc3c2ncn1[C@H]1CCCC[C@@H]1O` [Example 9, 6-[(4-Fluoro-4-pyridin-2-ylpiperidin-1-yl)methyl]-3-[(1S,2S)-2-hydroxycyclohexyl]benzo[h]quinazolin-4(3H)-one] the figure was 6.98; with `N#CC1(c2ccccn2)CCN(Cc2cc3c(=O)n([C@H]4CCOC[C@@H]4O)cnc3c3ccccc23)CC1` [Example 3], 7.51.
Consider `Cn1cc(N2CCN(Cc3cc4c(=O)n([C@H]5CCCC[C@@H]5O)cnc4c4ccccc34)CC2=O)cn1` (racemic) [Example 7, rac-3[(1R,2R)-2-Hydroxycyclohexyl]-6-{[4-(1-methyl-1H-pyrazol-4-yl)-3-oxopiperazin-1-yl]methyl}benzo[h]quinazolin-4(3H)-one], for which the pEC50 is 7.36.
On to `N#CC1(c2ccccn2)CCN(Cc2cc3c(=O)n([C@H]4CCCC[C@@H]4O)cnc3c3ccccc23)CC1` (racemic) [Example 1, rac-1-({3-[(1R,2R)-2-Hydroxycyclohexyl]-4-oxo-3,4-dihydrobenzo[h]quinazolin-6-yl}methyl)-4-pyridin-2-ylpiperidine-4-carbonitrile], for which the pEC50 was 7.35.
Consider `N#CC1(c2ccccn2)CC[N+]([O-])(Cc2cc3c(=O)n([C@H]4CCCC[C@@H]4O)cnc3c3ccccc23)CC1` (stereo partly drawn) [Example 4, 1-({3-[(1S,2S)-2-Hydroxycyclohexyl]-4-oxo-3,4-dihydrobenzo[h]quinazolin-6-yl}methyl)-4-pyridin-2-ylpiperidine-4-carbonitrile 1-oxide], for which the pEC50 was 5.41.
